From patent US20220047569A1, “METHOD AND COMPOUND FOR USE, IN TREATING AND/OR PREVENTING NETOSIS” (Jubilant EpiPad LLC, priority 2020, published 2022)

tested on: Histone H3 Citrullination in Neutrophils; assay: Citrullination ELISA (Citrullinated Histone H3) in calcium ionophore stimulated neutrophils; format: cell-based; details: Neutrophil; human neutrophils, 25 μM calcium ionophore, CitH3 ELISA
In short: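 Freshly isolated human donor neutrophils in RPMI with 2% BSA and 1 mM CaCl2 were pre-incubated 30 min with compound (10, 1, 0.1 μM), then stimulated 30 min with 25 μM calcium ionophore. After S7 nuclease digestion, lysates were assayed by citrullinated histone H3 ELISA (450 nm); IC50 from sigmoidal fits.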

Q: Which IC50 does the source give for `N[C@@H]1CCCN(C(=O)c2cc3c4c(c2)nc(-c2cc5cc(F)c(F)cc5n2CC2CC2)n4CCN3)C1` [Compound 163, (R)-(3-aminopiperidin-1-yl)(2-(1-(cyclopropylmethyl)-5,6-difluoro-1H-indol-2-yl)-5,6-dihydro-4H-imidazo[1,5,4-de]quinoxalin-8-yl)methanone] here?
A: < 0.1 µM

Q: For `N[C@@H]1CCCN(C(=O)c2cc3c4c(c2)nc(-c2cc5ccccc5n2Cc2ccccn2)n4CCO3)C1` [Compound 97, (R)-(3-aminopiperidin-1-yl)(2-(1-(pyridin-2-ylmethyl)-1H-indol-2-yl)-3,4-dihydro-5-oxa-1,2a-diazaacenaphthylen-7-yl)methanone], which IC50 is on record?
A: 0.1 to 1 µM

Q: Which IC50 does the source give for `N[C@@H]1CCCN(C(=O)c2cc3c4c(c2)nc(-c2cc5ccccc5n2CC2CCC2)n4CCO3)C1` [Compound 127, (R)-(3-aminopiperidin-1-yl)(2-(1-(cyclobutylmethyl)-1H-indol-2-yl)-3,4-dihydro-5-oxa-1,2a-diazaacenaphthylen-7-yl)methanone] here?
A: 0.1 to 1 µM

Q: `CN1CCn2c(-c3cc4cc(F)ccc4n3CC3CC3)nc3cc(C(=O)N4CCC[C@@H](N)C4)cc1c32` [Compound 161, (R)-(3-aminopiperidin-1-yl)(2-(1-(cyclopropylmethyl)-5-fluoro-1H-indol-2-yl)-6-methyl-5,6-dihydro-4H-imidazo[1,5,4-de]quinoxalin-8-yl)methanone] was tested. Which IC50 did it give?
A: < 0.1 µM

Q: For `Cc1c(-c2cc3ccc(F)cc3n2Cc2ccc(F)cc2)nc2cc(C(=O)N3CCC[C@@H](N)C3)ccn12` [Compound 54, (R)-(3-aminopiperidin-1-yl)(2-(6-fluoro-1-(4-fluorobenzyl)-1H-indol-2-yl)-3-methylimidazo[1,2-a]pyridin-7-yl)methanone], which IC50 is on record?
A: < 0.1 µM

Q: With `N[C@@H]1CCCN(C(=S)c2cc3c4c(c2)nc(-c2cc5ccccc5n2CC2CC2)n4CCN3)C1` [Compound 172, (R)-(3-aminopiperidin-1-yl)(2-(1-(cyclopropylmethyl)-1H-indol-2-yl)-5,6-dihydro-4H-imidazo[1,5,4-de]quinoxalin-8-yl)methanethione] as the compound, how does the IC50 read?
A: < 0.1 µM

Q: With `Cc1c(-c2cc3ccc(F)cc3n2Cc2cccnc2)nc2cc(C(=O)N3CCC[C@@H](N)C3)ccn12` [Compound 69, (R)-(3-aminopiperidin-1-yl)(2-(6-fluoro-1-(pyridin-3-ylmethyl)-1H-indol-2-yl)-3-methylimidazo[1,2-a]pyridin-7-yl)methanone] as the compound, how does the IC50 read?
A: 0.1 to 1 µM

Q: `N[C@@H]1CCCN(C(=O)c2cc3c4c(c2)nc(-c2cc5ccccc5n2CC2CC2)n4CCN3)C1` [Compound 149, (R)-(3-aminopiperidin-1-yl)(2-(1-(cyclopropylmethyl)-1H-indol-2-yl)-5,6-dihydro-4H-imidazo[1,5,4-de]quinoxalin-8-yl)methanone] was tested. Which IC50 did it give?
A: 0.1 to 1 µM

Q: `N[C@@H]1CCCN(C(=O)c2cc3c4c(c2)nc(-c2cc5ccccc5n2Cc2cnccn2)n4CCO3)C1` [Compound 111, (R)-(3-aminopiperidin-1-yl)(2-(1-(pyrazin-2-ylmethyl)-1H-indol-2-yl)-3,4-dihydro-5-oxa-1,2a-diazaacenaphthylen-7-yl)methanone] was tested. Which IC50 did it give?
A: 0.1 to 1 µM

Q: For `COc1ccc2cc(-c3nc4cc(C(=O)N5CCC[C@@H](N)C5)cc5c4n3CCO5)n(Cc3ccc(F)cc3)c2c1` [Compound 137, (R)-(3-aminopiperidin-1-yl)(2-(1-(4-fluorobenzyl)-6-methoxy-1H-indol-2-yl)-3,4-dihydro-5-oxa-1,2a-diazaacenaphthylen-7-yl)methanone], which IC50 is on record?
A: > 1 µM
